Test results reported in patent publication US20260356856A1, “KRAS G12S AND G12C INHIBITORS” (MIRATI THERAPEUTICS, INC., priority 2023, published 2026).

Columns and labels:
[1] = target: T1, KRas-mediated phosphorylation of ERK in H358 cells (Homo sapiens, UniProt P01116, G12C); assay: Inhibition of KRas-mediated phosphorylation of ERK (HTRF), H358 cells; format: cell-based; conditions: HTRF pERK, 3 h incubation
T1 construct: pERK HTRF read-out

[2] = target: T2, KRas-mediated phosphorylation of ERK in MKN1 cells (Homo sapiens, UniProt P01116); assay: Inhibition of KRas-mediated phosphorylation of ERK (HTRF), MKN1 cells; format: cell-based; conditions: MKN1 cells (KRas WT); HTRF pERK; 3 h incubation
T2 construct: pERK HTRF read-out
Method: Inhibition of KRas Phosphorylation of ERK (HTRF) by Exemplary Compounds of Formula (Ia) or (Ib)
Cisbio HTRF Advanced pERK Assay Catalog #64AERPEH • Cells: MKN1, PSN1 • Procedure: • 1. Day 1: Seed 6,000 cells/well −25 μl/well in 384-well white solid bottom plate; RPM1_10% FBS. Incubate overnight at 37 °C/5% CO2. • 2.

[3] = target: T3, KRas-mediated phosphorylation of ERK in A549 cells (Homo sapiens, UniProt P01116, G12S); assay: Inhibition of KRas-mediated phosphorylation of ERK (HTRF), A549 cells; format: cell-based; conditions: HTRF pERK, 3 h incubation
T3 construct: pERK HTRF read-out

KRas G12S = target: T4, KRas G12S (Homo sapiens, UniProt P01116, G12S); assay: KRas binding assay, TR-FRET displacement of Cy5 labelled tracer; conditions: 60-minute incubation at room temperature, 1% DMSO, pH 7.5
T4 construct: Biotinylated KRas (corresponding to amino acids 1-169, produced at Accelegan Inc.); biotin (biotinylated); purchased Accelegan Inc
Procedure, shortened: (§1)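 Truncated KRas (1-169), biotinylated, Tb-streptavidin donor; one-hour room-temperature incubation; IC50 by four-parameter curve fitting.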

KRas G12C = target: T5, KRas G12C (Homo sapiens, UniProt P01116, G12C); assay: as above; conditions: 60-minute incubation at room temperature, 1% DMSO, pH 7.5
T5 construct: Biotinylated KRas (corresponding to amino acids 1-169, produced at Accelegan Inc.); biotin (biotinylated); purchased Accelegan Inc
Procedure, shortened: as §1

KRas WT = target: T6, KRas WT (Homo sapiens, UniProt P01116); assay: as above; conditions: 60-minute incubation at room temperature, 1% DMSO, pH 7.5
T6 construct: Biotinylated KRas (corresponding to amino acids 1-169, produced at Accelegan Inc.); biotin (biotinylated); purchased Accelegan Inc
Procedure, shortened: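 Room-temperature incubation (60 min) of compound with biotinylated KRas 1-169, tracer and Tb-streptavidin preceded the TR-FRET read. Final DMSO was 1%; buffer pH 7.5. Percent-of-control values went into a 4-parameter equation to give IC50.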

T5 sequence (P01116 1-169 isoform P01116-2 G12C): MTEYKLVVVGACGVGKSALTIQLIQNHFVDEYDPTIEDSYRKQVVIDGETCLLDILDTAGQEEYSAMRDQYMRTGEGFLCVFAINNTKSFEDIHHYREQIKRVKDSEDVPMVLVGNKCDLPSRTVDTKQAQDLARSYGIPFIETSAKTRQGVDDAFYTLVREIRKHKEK
T3 sequence (P01116 1-188 isoform P01116-2 G12S): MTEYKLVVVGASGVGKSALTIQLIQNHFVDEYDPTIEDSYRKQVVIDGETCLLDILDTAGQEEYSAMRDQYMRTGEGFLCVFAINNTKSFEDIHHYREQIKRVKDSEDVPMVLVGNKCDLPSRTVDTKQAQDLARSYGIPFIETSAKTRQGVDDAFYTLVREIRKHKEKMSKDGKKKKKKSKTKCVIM
T4 sequence (P01116 1-169 isoform P01116-2 G12S): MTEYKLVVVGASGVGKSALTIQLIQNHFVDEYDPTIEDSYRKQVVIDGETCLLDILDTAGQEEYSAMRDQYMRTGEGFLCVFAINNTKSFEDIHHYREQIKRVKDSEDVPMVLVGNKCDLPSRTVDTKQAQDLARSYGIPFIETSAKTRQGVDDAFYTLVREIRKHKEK
T6 sequence (P01116 1-169 isoform P01116-2): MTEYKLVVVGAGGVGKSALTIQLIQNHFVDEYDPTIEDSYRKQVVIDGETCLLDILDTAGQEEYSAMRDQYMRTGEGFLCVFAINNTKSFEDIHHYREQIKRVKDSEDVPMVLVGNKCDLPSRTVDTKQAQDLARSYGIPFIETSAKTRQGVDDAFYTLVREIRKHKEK
T2 sequence (P01116 1-188 isoform P01116-2): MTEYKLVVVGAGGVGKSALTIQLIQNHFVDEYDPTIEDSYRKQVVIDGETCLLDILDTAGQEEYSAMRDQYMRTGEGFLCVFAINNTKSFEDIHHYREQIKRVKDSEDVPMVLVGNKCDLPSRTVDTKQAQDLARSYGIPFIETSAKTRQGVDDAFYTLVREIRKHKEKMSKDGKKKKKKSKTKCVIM
T1 sequence (P01116 1-188 isoform P01116-2 G12C): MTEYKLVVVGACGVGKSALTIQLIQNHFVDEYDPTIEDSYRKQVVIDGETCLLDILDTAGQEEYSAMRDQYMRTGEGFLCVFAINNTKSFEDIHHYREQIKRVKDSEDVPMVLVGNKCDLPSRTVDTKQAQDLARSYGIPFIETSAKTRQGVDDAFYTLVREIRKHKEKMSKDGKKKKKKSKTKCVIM

| IC50 [1] | IC50 [2] | IC50 [3] | IC50 (KRas G12S) | IC50 (KRas G12C) | IC50 (KRas WT) | SMILES |
| --- | --- | --- | --- | --- | --- | --- |
| 7 nM | 200 nM | 7 nM | 8 nM | 11 nM | 10 nM | Cc1ccn(C(=O)C2CCCN(c3nc(OC[C@@]45CCCN4C[C@H](F)C5)nc4c(F)c(-c5ccc(F)c6sc(N)c(C#N)c56)c(Cl)cc34)CC2)n1 (stereo partly drawn) [Example 130, 2-amino-4-(6-chloro-8-fluoro-2-(((2R,7aS)-2-fluorotetrahydro-1H-pyrrolizin-7a(5H)-yl)methoxy)-4-(4-(3-methyl-1H-pyrazole-1-carbonyl)azepan-1-yl)quinazolin-7-yl)-7-fluorobenzo[b]thiophene-3-carbonitrile] |
| 9 nM | 258 nM | 5 nM | 6 nM | 7 nM | 7 nM | N#Cc1c(N)sc2c(F)ccc(-c3c(Cl)cc4c(N5CCCC(C(=O)n6cccn6)CC5)nc(OC[C@@]56CCCN5C[C@H](F)C6)nc4c3F)c12 (stereo partly drawn) [Example 131, 4-(4-(4-(1H-pyrazole-1-carbonyl)azepan-1-yl)-6-chloro-8-fluoro-2-(((2R,7aS)-2-fluorotetrahydro-1H-pyrrolizin-7a(5H)-yl)methoxy)quinazolin-7-yl)-2-amino-7-fluorobenzo[b]thiophene-3-carbonitrile] |
| 1200 nM | 404 nM | > 10000 nM | 17 nM | 19 nM | 25 nM | Cc1ccn(C(=O)C2CCCN(c3nc(OC[C@@]45CCCN4C[C@H](F)C5)nc4c(F)c(-c5ccc(F)c6sc(N)c(C#N)c56)c(Cl)cc34)C2)n1 (stereo partly drawn) [Example 132, 2-amino-4-(6-chloro-8-fluoro-2-(((2R,7aS)-2-fluorotetrahydro-1H-pyrrolizin-7a(5H)-yl)methoxy)-4-(3-(3-methyl-1H-pyrazole-1-carbonyl)piperidin-1-yl)quinazolin-7-yl)-7-fluorobenzo[b]thiophene-3-carbonitrile] |
| 20 nM | 105 nM | 7 nM | 7 nM | 17 nM | 17 nM | Cc1ccn(C(=O)C2CCN(c3nc(OC[C@@]45CCCN4C[C@H](F)C5)nc4c(F)c(-c5ccc(F)c6sc(N)c(C#N)c56)c(Cl)cc34)CC2)n1 [Example 133, 2-amino-4-(6-chloro-8-fluoro-2-(((2R,7aS)-2-fluorotetrahydro-1H-pyrrolizin-7a(5H)-yl)methoxy)-4-(4-(3-methyl-1H-pyrazole-1-carbonyl)piperidin-1-yl)quinazolin-7-yl)-7-fluorobenzo[b]thiophene-3-carbonitrile] |
| 157 nM | 106 nM | 137 nM | 6 nM | 13 nM | 16 nM | Cc1ccn(C(=O)CC2CN(c3nc(OC[C@@]45CCCN4C[C@H](F)C5)nc4c(F)c(-c5ccc(F)c6sc(N)c(C#N)c56)c(Cl)cc34)C2)n1 [Example 138, 2-amino-4-(6-chloro-8-fluoro-2-(((2R,7aS)-2-fluorotetrahydro-1H-pyrrolizin-7a(5H)-yl)methoxy)-4-(3-(2-(3-methyl-1H-pyrazol-1-yl)-2-oxoethyl)azetidin-1-yl)quinazolin-7-yl)-7-fluorobenzo[b]thiophene-3-carbonitrile] |
| 412 nM | 1210 nM | 46 nM | 5 nM | 5 nM | 16 nM | Cc1ccn(C(=O)C2CCN(c3nc(OC[C@@]45CCCN4C[C@H](F)C5)nc4c(F)c(-c5ccc(F)c6sc(N)c(C#N)c56)c(Cl)cc34)C2)n1 (stereo partly drawn) [Example 139, 2-amino-4-(6-chloro-8-fluoro-2-(((2R,7aS)-2-fluorotetrahydro-1H-pyrrolizin-7a(5H)-yl)methoxy)-4-(3-(3-methyl-1H-pyrazole-1-carbonyl)pyrrolidin-1-yl)quinazolin-7-yl)-7-fluorobenzo[b]thiophene-3-carbonitrile] |
| 22 nM | 178 nM | 8 nM | 3 nM | 11 nM | 15 nM | COc1ccn(C(=O)C2CCCN(c3nc(OC[C@@]45CCCN4C[C@H](F)C5)nc4c(F)c(-c5ccc(F)c6sc(N)c(C#N)c56)c(Cl)cc34)CC2)n1 (stereo partly drawn) [Example 140, 2-amino-4-(6-chloro-8-fluoro-2-(((2R,7aS)-2-fluorotetrahydro-1H-pyrrolizin-7a(5H)-yl)methoxy)-4-(4-(3-methoxy-1H-pyrazole-1-carbonyl)azepan-1-yl)quinazolin-7-yl)-7-fluorobenzo[b]thiophene-3-carbonitrile] |
| 26 nM | 363 nM | 10 nM | < 2 nM | < 2 nM | 11 nM | Cc1ccn(C(=O)CCCN(C)c2nc(OC[C@@]34CCCN3C[C@H](F)C4)nc3c(F)c(-c4ccc(F)c5sc(N)c(C#N)c45)c(Cl)cc23)n1 [Example 141, 2-amino-4-(6-chloro-8-fluoro-2-(((2R,7aS)-2-fluorotetrahydro-1H-pyrrolizin-7a(5H)-yl)methoxy)-4-(methyl (4-(3-methyl-1H-pyrazol-1-yl)-4-oxobutyl)amino)quinazolin-7-yl)-7-fluorobenzo[b]thiophene-3-carbonitrile] |
| 8 nM | 531 nM | 7 nM | < 2 nM | < 2 nM | 10 nM | Cc1ccn(C(=O)CCCNc2nc(OC[C@@]34CCCN3C[C@H](F)C4)nc3c(F)c(-c4ccc(F)c5sc(N)c(C#N)c45)c(Cl)cc23)n1 [Example 142, 2-amino-4-(6-chloro-8-fluoro-2-(((2R,7aS)-2-fluorotetrahydro-1H-pyrrolizin-7a(5H)-yl)methoxy)-4-((4-(3-methyl-1H-pyrazol-1-yl)-4-oxobutyl)amino)quinazolin-7-yl)-7-fluorobenzo[b]thiophene-3-carbonitrile] |
| 2810 nM | 4010 nM | 137 nM | 27 nM | 237 nM | 331 nM | CCc1c(F)ccc2cc(O)cc(N3CCc4c(nc(OC[C@@]56CCCN5C[C@H](F)C6)nc4N4CCCC(C(=O)n5ccc(C)n5)CC4)C3)c12 (stereo partly drawn) [Example 145, (1-(7-(8-ethyl-7-fluoro-3-hydroxynaphthalen-1-yl)-2-(((2R,7aS)-2-fluorotetrahydro-1H-pyrrolizin-7a(5H)-yl)methoxy)-5,6,7,8-tetrahydropyrido[3,4-d]pyrimidin-4-yl)azepan-4-yl)(3-methyl-1H-pyrazol-1-yl)methanone] |
| 3830 nM | 2530 nM | > 10000 nM | 477 nM | 676 nM | 412 nM | CCc1c(F)ccc2cc(O)cc(N3CCc4c(nc(OC[C@@]56CCCN5C[C@H](F)C6)nc4N4CCC(C(=O)n5ccc(C)n5)CC4)C3)c12 [Example 146, (1-(7-(8-ethyl-7-fluoro-3-hydroxynaphthalen-1-yl)-2-(((2R,7aS)-2-fluorotetrahydro-1H-pyrrolizin-7a(5H)-yl)methoxy)-5,6,7,8-tetrahydropyrido[3,4-d]pyrimidin-4-yl)piperidin-4-yl)(3-methyl-1H-pyrazol-1-yl)methanone] |
